Experiments:
[1] = system: LP-1 cells; assay: Biological Assay C: antiproliferative activity on LP-1 cells (CellTiter-Glo); format: cell-based, human; conditions: Homo sapiens, LP-1, 72 h, 72 hr treatment; averaged values
Summary of the method: (§1)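 Luminescent ATP signal (CellTiter-Glo) measures growth of myeloma cells following a 72 h compound treatment. Values for the time-zero blank are subtracted, and each mean of duplicate wells is given as percentage of the no-drug control.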

[2] = system: JJN-3 cells; assay: Biological Assay C: antiproliferative activity on JJN-3 cells (CellTiter-Glo); format: cell-based, human; conditions: Homo sapiens, JJN-3, 72 h, 72 hr treatment; averaged values
Summary of the method: as §1

[3] = system: P-IKKα levels in L363 cells; assay: Biological Assay B: effect of compounds on P-IKKα levels in L363 cells; format: cell-based; conditions: Homo sapiens, L-363, averaged values, read-out: IKKα Cellular IC50
Protocol: Effect of Compounds on P-IKKα Levels in L363 Cells
All compounds tested were dissolved in DMSO and further dilutions were made in culture medium. Final DMSO concentration was 1% (v/v) in cell assays. The human L363 cells (ATCC) were cultured in RPMI 1640 medium supplemented with GlutaMax and 10% fetal calf serum (PAA). Cells were routinely maintained at densities of 0.2×10^6 cells per ml-1×10^6 cells per ml at 37° C. in a humidified 5% CO2 atmosphere. Cells were passaged twice a week splitting back to obtain the low density. Cells were seeded in 96 well plates (Nunc 167008) at 2×10^6 per ml media in a volume of 75 μl per well plus 25 μl 1 μg/ml recombinant human B-cell activating factor BAFF/B1YS/TNFSF13B. Seeded cells were incubated at 37° C. in a humidified 5% CO2 atmosphere for 24 hr. Drugs and/or solvents were added (20 μl) to a final volume of 120 μl. Following 2 hr treatment plates were removed from the incubator and cell lysis was achieved by the addition of 30 μl 5× lysis buffer followed by shaking on a plate shaker at 4° C. for 10 min. At the end of this incubation lysed cells were centrifuged at 800×g for 20 min at 4° C. and the lysate was assessed for P-IKKα levels by sandwich immuno-assay carried out in anti-rabbit antibody coated Mesoscale plates. Within an experiment, the results for each treatment were the mean of 2 replicate wells. For initial screening purposes, compounds were tested using an 8 point dilution curve (serial 1:3 dilutions). For each experiment, controls (containing MG132 and BAFF but no test drug) and a blank incubation (containing MG132 and BAFF and 10 μM ADS125117, a test concentration known to give full inhibition) were run in parallel. The blank incubation value was subtracted from all control and sample values. To determine the IC50 a sigmoidal curve was fitted to the plot of % inhibition of control P-IKKα levels versus Log10 compound concentration.

[4] = biological target: T1, Recombinant Human NF-kappaB-Inducing Kinase (NIK/MAP3K14) (Homo sapiens, UniProt Q99558); assay: Biological Assay A2: inhibition of auto-phosphorylation of recombinant human NIK/MAP3K14 (AlphaScreen); format: biochemical; conditions: auto-phosphorylation; averaged over all measurements on all batches; read-out: αscreen IC50
Summary of the method: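 AlphaScreen readout of anti-phospho-IKK Ser176/180 signal after 1 h, 25° C. incubation of 0.2 nM GST-NIK with compound and 25 microM ATP (Tris pH 7.5 buffer, MgCl2, 1% DMSO final). IC50 from sigmoidal fit of blank-corrected % inhibition against Log10 concentration.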

[5] = system: L-363 cells; assay: Biological Assay C: antiproliferative activity on L-363 cells (CellTiter-Glo); format: cell-based, human; conditions: Homo sapiens, L-363, 72 h, 72 hr treatment; averaged values
Summary of the method: as §1

[6] = biological target: T1, Recombinant Human NF-kappaB-Inducing Kinase (NIK/MAP3K14); assay: Biological Assay A: inhibition of recombinant human NIK/MAP3K14 activity (MBP phosphorylation, Mesoscale); format: biochemical; conditions: averaged over all measurements on all batches; read-out: Biochemical (MSD MBP) IC50
Protocol: Inhibition of Recombinant Human NF-kappaB-Inducing Kinase (NIK/MAP3K14) Activity
Assay buffer was 50 mM Tris pH 7.5 containing 1 mM EGTA (ethylene glycol tetraacetic acid), 1 mM DTT (dithiothreitol), 0.1 mM Na3VO4, 5 mM MgCl2, 0.01% Tween 20. Assays were carried out in 384 well Mesoscale high binding plates which had been coated with myelin basic protein (MBP) and blocked with bovine serum albumin to prevent non-specific protein binding. All compounds tested were dissolved in dimethyl sulfoxide (DMSO) and further dilutions were made in assay buffer. Final DMSO concentration was 1% (v/v) in assays. Incubations consisted of compound (1% DMSO in control and blank wells), 25 μM Adenosine-5′-triphosphate (ATP), and 10 nM NIK/MAP3K14 substituting enzyme with buffer in the blank wells. Incubations were carried out for 1 h at 25° C. and were followed by washing and sequential incubation with rabbit anti-phospho-MBP and anti-rabbit Ig Sulfotag antibody before reading bound Sulfotag on a Mesoscale Discovery. Signal obtained in the wells containing blank samples was subtracted from all other wells and IC50's were determined by fitting a sigmoidal curve to % inhibition of control versus Log10 compound concentration.

T1 sequence (Q99558 whole entry): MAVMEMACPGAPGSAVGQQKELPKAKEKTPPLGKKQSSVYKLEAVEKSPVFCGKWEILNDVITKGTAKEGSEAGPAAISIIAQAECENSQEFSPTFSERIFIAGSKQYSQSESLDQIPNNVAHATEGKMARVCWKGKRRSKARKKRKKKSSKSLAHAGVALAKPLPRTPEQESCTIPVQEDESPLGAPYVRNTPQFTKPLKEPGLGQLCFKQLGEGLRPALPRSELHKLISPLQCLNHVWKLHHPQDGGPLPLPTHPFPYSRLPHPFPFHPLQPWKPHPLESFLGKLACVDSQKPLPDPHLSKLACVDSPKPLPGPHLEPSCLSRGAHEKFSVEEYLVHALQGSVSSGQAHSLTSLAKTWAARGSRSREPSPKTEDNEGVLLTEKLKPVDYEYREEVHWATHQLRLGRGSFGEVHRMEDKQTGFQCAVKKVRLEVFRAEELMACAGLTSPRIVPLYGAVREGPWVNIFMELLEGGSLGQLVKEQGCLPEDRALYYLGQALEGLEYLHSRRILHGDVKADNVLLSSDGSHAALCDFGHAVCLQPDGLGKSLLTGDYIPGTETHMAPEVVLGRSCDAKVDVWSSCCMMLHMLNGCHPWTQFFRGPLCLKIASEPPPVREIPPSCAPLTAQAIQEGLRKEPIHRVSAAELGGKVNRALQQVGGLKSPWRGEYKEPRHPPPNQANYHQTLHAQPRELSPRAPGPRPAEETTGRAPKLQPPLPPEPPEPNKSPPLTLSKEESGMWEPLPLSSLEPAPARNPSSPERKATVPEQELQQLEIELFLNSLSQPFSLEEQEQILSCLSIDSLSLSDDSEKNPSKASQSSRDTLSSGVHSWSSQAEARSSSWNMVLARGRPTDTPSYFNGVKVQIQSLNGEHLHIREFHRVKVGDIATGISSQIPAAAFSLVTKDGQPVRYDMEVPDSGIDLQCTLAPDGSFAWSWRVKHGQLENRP

CC(C)(O)C#Cc1cc2c(-c3nc(N)ncc3Cl)cn(CC(C)(C)O)c2cn1 [Compound 24]
EC50 [1]: 760 nM
EC50 [2]: 140 nM
IC50 [3]: 13 nM
IC50 [4]: 15 nM
EC50 [5]: 96 nM
IC50 [6]: 8.7 nM

COCCn1cc(-c2nc(N)ncc2Cl)c2cc(C#CC(C)(C)O)ncc21 [Compound 25]
EC50 [1]: 190 nM
EC50 [2]: 110 nM
IC50 [3]: 11 nM
IC50 [4]: 20 nM
EC50 [5]: 63 nM
IC50 [6]: 9.9 nM

COCCn1cc(-c2ccnc(N)n2)c2cc(C#CC(C)(O)c3nccs3)ncc21 (stereo not drawn) [Compound 26]
EC50 [1]: 15000 nM
EC50 [2]: 5600 nM
IC50 [3]: 120 nM
IC50 [4]: 19 nM
EC50 [5]: 11000 nM
IC50 [6]: 49 nM

CC(C)(O)Cn1cc(-c2ccnc(N)n2)c2cc(C#CC(C)(O)c3nccs3)ncc21 (stereo not drawn) [Compound 27]
EC50 [1]: > 10000 nM
EC50 [2]: 9700 nM
IC50 [3]: 360 nM
IC50 [4]: 70 nM
EC50 [5]: > 10000 nM
IC50 [6]: 25 nM

CC(C)(O)C#Cc1cc2c(-c3ccnc(N)n3)cn(CC3COC3)c2cn1 [Compound 28]
EC50 [1]: 5800 nM
EC50 [2]: 1200 nM
IC50 [3]: 84 nM
IC50 [4]: 49 nM
EC50 [5]: 810 nM
IC50 [6]: 17 nM

CC(C)(O)Cn1cc(-c2ccnc(N)n2)c2cc(C#CC3(O)CCOC3)ncc21 (stereo not drawn) [Compound 29]
EC50 [1]: > 10000 nM
EC50 [2]: > 10000 nM
IC50 [3]: 6300 nM
IC50 [4]: 110 nM
EC50 [5]: > 10000 nM
IC50 [6]: 140 nM

CN(C)C(=O)Cn1cc(-c2ccnc(N)n2)c2cc(C#CC(C)(C)O)ncc21 [Compound 30]
EC50 [1]: > 10000 nM
EC50 [2]: 12000 nM
IC50 [3]: 1700 nM
IC50 [4]: 930 nM
EC50 [5]: 24000 nM
IC50 [6]: 120 nM

COCCn1cc(-c2ccnc(N)n2)c2cc(C#CC(C)(O)c3ncco3)ncc21 (stereo not drawn) [Compound 31]
EC50 [1]: > 10000 nM
EC50 [2]: 1900 nM
IC50 [3]: 110 nM
IC50 [4]: 79 nM
EC50 [5]: 6400 nM
IC50 [6]: 36 nM

COCCn1cc(-c2ccnc(N)n2)c2cc(C#CC(C)(O)C3CC3)ncc21 (stereo not drawn) [Compound 32]
EC50 [1]: 1500 nM
EC50 [2]: 460 nM
IC50 [3]: 89 nM
IC50 [4]: 40 nM
EC50 [5]: 740 nM
IC50 [6]: 59 nM

CC(C)(O)Cn1cc(-c2nc(N)ncc2Cl)c2cc(C#CC3(O)CCCC3)ncc21 [Compound 33]
EC50 [1]: 4100 nM
EC50 [2]: 150 nM
IC50 [3]: 53 nM
IC50 [4]: 16 nM
EC50 [5]: 1100 nM
IC50 [6]: 4.2 nM

CN1CC(n2cc(-c3ccnc(N)n3)c3cc(C#CC(C)(C)O)ncc32)C1 [Compound 34]
EC50 [1]: 4100 nM
EC50 [2]: 330 nM
IC50 [3]: 160 nM
IC50 [4]: 42 nM
EC50 [5]: 240 nM
IC50 [6]: 76 nM

CCC(O)(C#Cc1cc2c(-c3ccnc(N)n3)cn(CCOC)c2cn1)CC [Compound 35]
EC50 [1]: 3800 nM
EC50 [2]: 2000 nM
IC50 [3]: 470 nM
IC50 [4]: 150 nM
EC50 [5]: 3000 nM
IC50 [6]: 120 nM

CC(C)(O)Cn1cc(-c2ccnc(N)n2)c2cc(C#CC(C)(O)c3ccccc3)ncc21 (stereo not drawn) [Compound 36]
EC50 [1]: 12000 nM
EC50 [2]: 1700 nM
IC50 [3]: 900 nM
IC50 [4]: 86 nM
EC50 [5]: 7900 nM
IC50 [6]: 17 nM

CC(C)(O)Cn1cc(-c2ccnc(N)n2)c2cc(C#CC(C)(O)C3CCC3)ncc21 (stereo not drawn) [Compound 37]
EC50 [1]: > 10000 nM
EC50 [2]: 3600 nM
IC50 [3]: 330 nM
IC50 [4]: 100 nM
EC50 [5]: 16000 nM
IC50 [6]: 45 nM

— patent US9643964B2, “3-(2-aminopyrimidin-4-yl)-5-(3-hydroxypropynyl)-1H-pyrrolo[2,3-C]pyridine derivatives as NIK inhibitors for the treatment of cancer” (Janssen Pharmaceutica NV, priority 2013, dated 2017)
